This passage reports IC50 results from PubChem BioAssay AID651650 (Sanford-Burnham Center for Chemical Genomics, 2012).

Calls of active or inactive are those of the source.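 How the source made its calls: active means mean IC50 below 20 µM in each of the two panels, so potent in both; inactive means the rest.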

The test deals with Neuropilin-1 (Homo sapiens) (UniProt O14786). The experiment in a line: blockers of CendR peptide binding to NRP-1 – biochemical, FP and AlphaScreen panel, dose response (AID 651650). The settings on record: NRP-1 b1b2 / RPARPAR peptide binding, FP or AlphaScreen.
Sequence of Neuropilin-1 (Homo sapiens) (O14786 whole entry, looked up): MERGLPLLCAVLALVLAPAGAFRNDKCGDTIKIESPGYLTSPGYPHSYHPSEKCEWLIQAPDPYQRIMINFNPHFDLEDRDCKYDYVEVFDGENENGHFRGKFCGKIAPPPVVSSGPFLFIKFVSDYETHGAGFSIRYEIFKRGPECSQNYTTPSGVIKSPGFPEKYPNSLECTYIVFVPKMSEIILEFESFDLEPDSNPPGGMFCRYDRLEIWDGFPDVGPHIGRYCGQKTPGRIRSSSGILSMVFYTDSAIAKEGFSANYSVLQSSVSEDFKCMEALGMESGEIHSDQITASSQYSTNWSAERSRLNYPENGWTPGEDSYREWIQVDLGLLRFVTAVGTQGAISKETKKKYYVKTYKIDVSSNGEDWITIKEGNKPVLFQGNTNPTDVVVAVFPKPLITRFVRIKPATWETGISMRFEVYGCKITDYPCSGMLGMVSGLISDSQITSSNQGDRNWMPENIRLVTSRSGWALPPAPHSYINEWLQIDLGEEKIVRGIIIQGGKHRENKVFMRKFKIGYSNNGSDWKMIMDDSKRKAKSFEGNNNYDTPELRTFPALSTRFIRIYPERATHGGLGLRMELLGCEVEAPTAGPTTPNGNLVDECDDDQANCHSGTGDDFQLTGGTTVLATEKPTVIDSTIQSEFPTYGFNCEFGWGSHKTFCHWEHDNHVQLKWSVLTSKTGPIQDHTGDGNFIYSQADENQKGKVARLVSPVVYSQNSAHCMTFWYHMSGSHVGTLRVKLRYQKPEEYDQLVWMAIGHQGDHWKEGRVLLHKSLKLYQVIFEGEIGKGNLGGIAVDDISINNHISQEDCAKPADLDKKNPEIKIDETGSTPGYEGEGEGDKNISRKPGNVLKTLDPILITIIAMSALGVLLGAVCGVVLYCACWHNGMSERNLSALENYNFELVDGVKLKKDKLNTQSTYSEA
Setting [1] is: AlphaScreen, run 1, individual panel run IC50.
Where [2] appears, read: FP, run 1, individual panel run IC50.
Where [3] appears, read: FP, run 2, individual panel run IC50.

Regarding `O=C(NCCCN1CCCC(O)C1)c1cc(COc2ccc(F)cc2F)on1` (stereo not given), the IC50 was > 100 µM (inactive) (AlphaScreen, mean of runs); greater than 100 µM under setting [1]; > 95 µM (inactive) (FP, mean of runs); greater than 95 µM under setting [2]; greater than 95 µM under setting [3].

For `CCc1onc(C)c1C(=O)Nc1cc(C)ccc1OC`, the IC50 reads like this: (AlphaScreen, mean of runs) 16 µM; under setting [1], 16 µM; (FP, mean of runs) > 95 µM (inactive); under setting [2], greater than 95 µM; under setting [3], greater than 95 µM.

As for `O=C(CSc1nc2ccccc2c(=O)n1-c1ccc(F)cc1F)Nc1ccc2c(c1)CCC2`, the IC50 (AlphaScreen, mean of runs) is > 100 µM (inactive); the half-inhibitory concentration (IC50) under setting [1] is greater than 100 µM; the IC50 (FP, mean of runs) was > 95 µM (inactive); the IC50 under setting [2] was greater than 95 µM; the IC50 under setting [3] is greater than 95 µM.

`C=C(C)C1CC=C(C)/C(=N\NC(=O)CNc2ccccc2OC)C1` (stereo not given): the IC50 is, setting by setting: (AlphaScreen, mean of runs) > 100 µM (inactive); under setting [1], greater than 100 µM; (FP, mean of runs) > 95 µM (inactive); under setting [2], greater than 95 µM; under setting [3], greater than 95 µM.

For the compound `CCOc1ccccc1C1CC(=O)NC2=C1C(=O)CC(C)(C)C2` (stereo not given), the IC50 reads like this: (AlphaScreen, mean of runs) > 100 µM (inactive); under setting [1], greater than 100 µM; (FP, mean of runs) > 95 µM (inactive); under setting [2], greater than 95 µM; under setting [3], greater than 95 µM.

With `CC(C)(C)C(=O)c1cnc(Nc2ccccc2)s1`, the IC50 is > 100 µM (inactive) (AlphaScreen, mean of runs); greater than 100 µM under setting [1]; > 95 µM (inactive) (FP, mean of runs); greater than 95 µM under setting [2]; greater than 95 µM under setting [3].

For the compound `CSc1ncccc1C(=O)OCC(=O)NC1CCCCC1`, the IC50 (AlphaScreen, mean of runs) was > 100 µM (inactive); the half-inhibitory concentration (IC50) under setting [1] is greater than 100 µM; the IC50 (FP, mean of runs) was > 95 µM (inactive); the IC50 under setting [2] was greater than 95 µM; the IC50 under setting [3] is greater than 95 µM.

As to `CCc1ccc(C2CC(=O)N(c3cccc(F)c3)C3=C2C(=O)OC3)cc1` (stereo not given), the IC50 was > 100 µM (inactive) (AlphaScreen, mean of runs); greater than 100 µM under setting [1]; > 95 µM (inactive) (FP, mean of runs); greater than 95 µM under setting [2]; greater than 95 µM under setting [3].

Regarding `CCOc1c2ccc(C(=O)NCCc3cccs3)cc2nn1CC`, the IC50 is > 100 µM (inactive) (AlphaScreen, mean of runs); greater than 100 µM under setting [1]; > 95 µM (inactive) (FP, mean of runs); greater than 95 µM under setting [2]; greater than 95 µM under setting [3].

As a reminder, the IC50 is the midpoint of a concentration-inhibition curve.
